This passage reports IC50 results from patent US20170334899A1, “AMINO-SUBSTITUTED ISOTHIAZOLES” (Bayer Pharma Aktiengesellschaft, priority 2014, published 2017).

SMILES strings stand for the structures.

For this test, the target named is T1, catalytic domain of human Bub1 (amino acids 704-1085) (Homo sapiens, UniProt O43683).
T1 construct: catalytic domain of human Bub1 (amino acids 704-1085); His6 (N); made in house; host or cells: insect cells (Hi5)
Description: Bub1 kinase assay (TR-FRET). Format: biochemical. The note with it: 10 μM ATP, avg, read-out: Bub1 avg (IC50 [mol/l]). The gist of the method:
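Readout is the 665/620 nm TR-FRET ratio from anti-phosphoserine antibody, Eu-labelled anti-mouse IgG and streptavidin-XL665, scaled between no-enzyme and uninhibited controls. Reaction: 1 μM biotinylated peptide, 10 μM ATP, 60 min, 22 °C, after 15 min compound preincubation with His6-Bub1 (704-1085, insect-expressed, ~200 ng/ml).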

T1 sequence (O43683 704-1085): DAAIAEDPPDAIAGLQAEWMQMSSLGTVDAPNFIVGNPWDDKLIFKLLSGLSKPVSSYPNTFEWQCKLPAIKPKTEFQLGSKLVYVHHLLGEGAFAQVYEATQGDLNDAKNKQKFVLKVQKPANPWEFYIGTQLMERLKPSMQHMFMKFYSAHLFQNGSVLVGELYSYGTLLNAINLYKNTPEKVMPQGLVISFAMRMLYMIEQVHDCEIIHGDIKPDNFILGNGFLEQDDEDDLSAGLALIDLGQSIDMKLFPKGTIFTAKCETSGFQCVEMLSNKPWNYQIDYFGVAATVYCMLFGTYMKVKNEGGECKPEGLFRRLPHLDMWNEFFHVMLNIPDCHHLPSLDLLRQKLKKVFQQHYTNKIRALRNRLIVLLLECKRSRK

Turning to `Cc1nsc(Nc2cnc3ccccc3n2)c1C(=O)Nc1cccc(C(=O)N2CCOCC2)c1` [Example 52, 3-Methyl-N-[3-(morpholin-4-ylcarbonyl)phenyl]-5-(quinoxalin-2-ylamino)-1,2-thiazole-4-carboxamide], the IC50 amounted to 9 µM.
The figure for `Cc1nsc(Nc2cnc(C(F)(F)F)cn2)c1C(=O)Nc1ccc(OC2CCNCC2)c(F)c1` [Example 431, N-[3-Fluoro-4-(piperidin-4-yloxy)phenyl]-3-methyl-5-{[5-(trifluoromethyl)pyrazin-2-yl]amino}-1,2-thiazole-4-carboxamide] is over 20 µM.
On to `Cc1nsc(Nc2cnc(C(F)(F)F)cn2)c1C(=O)Nc1ccc(F)c(O[C@H]2CCN(CC(F)F)C2)c1` [Example 417, N-(3-{[(3S)-1-(2,2-Difluoroethyl)pyrrolidin-3-yl]oxy}-4-fluorophenyl)-3-methyl-5-{[5-(trifluoromethyl)pyrazin-2-yl]amino}-1,2-thiazole-4-carboxamide], for which the IC50 came to 1.8 µM.
The value for `Cc1nsc(Nc2cnc(C(F)(F)F)cn2)c1C(=O)Nc1ccc(OCC2CCN(CCC(F)(F)F)CC2(F)F)nc1` (centres unmarked) [Example 402, N-(6-{[3,3-difluoro-1-(3,3,3-trifluoropropyl)piperidin-4-yl]methoxy}pyridin-3-yl)-3-methyl-5-{[5-(trifluoromethyl)pyrazin-2-yl]amino}-1,2-thiazole-4-carboxamide] was over 20 µM.
With `CCN1CC[C@H](Oc2ccc(NC(=O)c3c(C)nsc3Nc3cnc(C(F)(F)F)cn3)cn2)[C@H](F)C1` [Example 424, N-(6-{[(3R,4S)-1-Ethyl-3-fluoropiperidin-4-yl]oxy}pyridin-3-yl)-3-methyl-5-{[5-(trifluoromethyl)pyrazin-2-yl]amino}-1,2-thiazole-4-carboxamide], the IC50 was over 20 µM.
Take `Cc1nsc(Nc2cnc(C(F)(F)F)cn2)c1C(=O)Nc1ccc(OCCN2CCC(F)(F)CC2)nc1` [Example 407, N-{6-[2-(4,4-Difluoropiperidin-1-yl)ethoxy]pyridin-3-yl}-3-methyl-5-{[5-(trifluoromethyl)pyrazin-2-yl]amino}-1,2-thiazole-4-carboxamide]: the IC50 is over 20 µM.
In the case of `Cc1nsc(Nc2cnc(C(F)(F)F)cn2)c1C(=O)Nc1ccc(F)c(O[C@H]2CCN(CCC(F)(F)F)C2)c1` [Example 415, N-(4-Fluoro-3-{[(3S)-1-(3,3,3-trifluoropropyl)pyrrolidin-3-yl]oxy}phenyl)-3-methyl-5-{[5-(trifluoromethyl)pyrazin-2-yl]amino}-1,2-thiazole-4-carboxamide], the IC50 was over 20 µM.
The figure for `Cc1nsc(Nc2cc(C#N)ccn2)c1C(=O)Nc1ccc(OCCCNCC(F)F)nc1` [Example 45, 5-[(4-Cyanopyridin-2-yl)amino]-N-(6-{3-[(2,2-difluoroethyl)amino]propoxy}pyridin-3-yl)-3-methyl-1,2-thiazole-4-carboxamide] is at least 20 µM; for `COCCOc1ccc(NC(=O)c2c(C)nsc2Nc2nc3c(C(F)(F)F)cccc3s2)cc1F` [Example 1, N-[3-Fluoro-4-(2-methoxyethoxy)phenyl]-3-methyl-5-{[4-(trifluoromethyl)-1,3-benzothiazol-2-yl]amino}-1,2-thiazole-4-carboxamide] it is at least 20 µM.
The figure for `Cc1nsc(Nc2cnc(C(F)(F)F)cn2)c1C(=O)Nc1ccc(OCCN(C)C(=O)OC(C)(C)C)nc1` [Example 429, tert-Butyl methyl{2-[(5-{[(3-methyl-5-{[5-(trifluoromethyl)pyrazin-2-yl]amino}-1,2-thiazol-4-yl)carbonyl]amino}pyridin-2-yl)oxy]ethyl}carbannate] is over 20 µM; for `Cc1nsc(Nc2cnc(C(F)(F)F)cn2)c1C(=O)Nc1ccc(OC[C@H]2CCN(CC(F)(F)F)C2)nc1` [Example 404, 3-Methyl-N-(6-{[(3S)-1-(2,2,2-trifluoroethyl)pyrrolidin-3-yl]methoxy}pyridin-3-yl)-5-{[5-(trifluoromethyl)pyrazin-2-yl]amino}-1,2-thiazole-4-carboxamide] it is over 20 µM.
